How the values were obtained:
[1] = Liver OEA content after OEA injection in wild-type and PPAR-α null mice (HPLC/MS); format: in vivo, mouse; conditions: 1 h after OEA 5 mg kg^−1 i.p.
[2] = Food intake in vagotomized or capsaicin-treated rats, Example 3; format: in vivo, rat; conditions: rats; OEA 10, Wy-14643 40 mg kg^−1 i.p.
[3] = Food intake in capsaicin-treated (sensory deafferented) rats, Example 2; format: in vivo, rat; conditions: OEA 10 mg per kg i.p.
Protocol: FAE were dissolved in dimethylsulphoxide (DMSO) and administered in 70% DMSO in sterile saline (acute treatments) Or 5% Tween 80/5% propylenglycol in sterile saline (subchronic treatments) (1 ml per kg, i.p.). Capsaicin was administered in 10% Tween 80/10% ethanol/80% saline; SR141716A, SR144528, CCK-8 and CP-93129 in 5% Tween 80/5% propylenglycol/90% saline (1 ml per kg, i.p.).

[4] = tested on: retinoid X receptor (RXR); experiment: GAL4 chimeric receptor transactivation assay in HeLa cells, RXR; format: cell-based, human
Protocol: (§1) Transactivator plasmids pFA-PPARα, pFA-PPARδ, pFA-PPARγ and pFA-RXR, which encoded for the […] Of hPPARα ? ((499-1404), hPPARδ (412-1320), hPPARγ (610-1434) and hRXR (402-1389) fused to the DNA-binding domain (residues 1-147) Of yeast GAL4 under control of the human cytomegalovirus (CMV) promoter were generated. The plasmids contained a neomycin-resistance gene to provide stable selection with G418 (200 μg-ml^−1; Calbiochem). The HeLa cells were cultured in Dulbecco's-modified Eagles's medium (DMEM) supplemented with fetal bovine serum (10%). The cells were transfected with Fugene 6 (3 μl, Roche) Containing the pFR-luc plasmid (1 μg, Stratagene). Eighteen hours following transfection, the culture media was replaced with supplemented DMEM containing hygromycin (100 μg-ml^−1, Calbiochem). After 4 weeks in culture, the surviving clones were isolated and analyzed by luciferase assay. […] The cells were cultured in supplemented DMEM containing hygromycin and G418. For transactivation assays, cells were seeded in 6-well plates (50,000 cells per well) and incubated for 7 hours in supplemented DMEM containing hygromycin and G418, plus appropriate concentrations of test compounds. Dual-luciferase reporter assay system (Promega) and an MLX Microtiter® plate luminometer (Dynex) were used to determine luciferase activity in cell lysates. […]

[5] = Conditioned taste aversion; format: in vivo, rat; conditions: 20 mg per kg i.p.
Protocol: Conditioned taste aversion. Rats were water-deprived for 24 h and then accustomed to drink from a graded bottle during a 30-min test period for four days. On day five, water was substituted with a 0.1% saccharin solution and, 30 min later, the animals received injections of vehicle, OEA (20 mg per kg) Or lithium chloride (0.4 M, 7.5 ml per kg). During the following two days, water consumption was recorded over 30-min test periods. The animals were then presented with water or saccharin, and drinking measured.

Adipocyte = experiment: Lypolysis (glycerol release) in adipocytes; format: cell-based, rat; conditions: 30 min incubation
Text: This example illustrates the effect of OEA on fat metabolism and methods for studying the same. Oleoylethanolamide (OEA) decreases body weight not only by suppressing appetite, but also by possibly enhancing body fat catabolism. The effects of OEA on fatty acid oxidation in major body-fat burning tissues (soleus muscle, liver, cultured cardiac myocytes and astrocytes) was examined. […] In addition, OEA induces a significant mobilization of triacylglycerol stores from primary white adipose tissue cells. Table 4 details the methods and effects of OEA on fatty acid oxidation in these cells. Structure-activity relationship experiments provide evidence that the effect of OEA on skeletal muscle fatty acid oxidation is specific (FIG. 8).

[6] = target: T1, cannabinoid binding to rat brain membranes (Rattus norvegicus, UniProt P20272); experiment: Displacement of cannabinoid binding to rat brain membranes; conditions: rat brain membranes in vitro
T1 construct: from tissue; host or cells: rat brain membranes
T1 sequence (P20272 whole entry): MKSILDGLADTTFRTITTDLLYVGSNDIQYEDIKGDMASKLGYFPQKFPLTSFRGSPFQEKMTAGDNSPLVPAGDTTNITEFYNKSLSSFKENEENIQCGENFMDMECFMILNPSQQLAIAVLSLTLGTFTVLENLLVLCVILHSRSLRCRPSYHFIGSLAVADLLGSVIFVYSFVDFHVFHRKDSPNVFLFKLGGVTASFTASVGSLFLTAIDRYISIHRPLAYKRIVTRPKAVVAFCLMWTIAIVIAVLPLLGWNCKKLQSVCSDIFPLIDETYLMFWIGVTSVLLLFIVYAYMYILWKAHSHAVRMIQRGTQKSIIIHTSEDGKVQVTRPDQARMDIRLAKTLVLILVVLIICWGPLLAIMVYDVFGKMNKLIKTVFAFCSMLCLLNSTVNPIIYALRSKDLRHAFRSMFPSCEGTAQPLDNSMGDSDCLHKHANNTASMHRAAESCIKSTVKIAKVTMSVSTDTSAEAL

[7] = Acute feeding experiments in free-feeding mice (C57BL/6J, wild-type, PPARα-null); format: in vivo, mouse
Protocol: Acute experiments. Drugs or appropriate vehicles (saline, for CCK-8 and d-fenfluramine; dimethylsulfoxide/saline, 70/30, for all other agents; 4 ml-kg^−1; i.p.) were administered at 5:00-5:30 PM to free-feeding mice, which were habituated to the experimental setting.

[8] = Intracerebroventricular OEA on food intake in 24 h food-deprived rats; format: in vivo, rat; conditions: for food intake 60 min / food intake 120 min / food intake 240 min: 24 h food-deprived rats
Protocol: Feeding experiments. Acute experiments. Food intake was measured in 24-h food-deprived rats (Navarro, et al., J. Neurochem., 67:1982-1991 (1996)), administering drugs 15 min before food presentation. Subchronic experiments. Ad libitum fed rats received vehicle injections for three days. On day four, the animals were divided in two equal groups and gave them daily injections of vehicle or OEA (5 mg per kg at 1900 h) for 7 consecutive days, while measuring body weight, food intake and water intake.

human PPARγ = target: T2, human PPARγ (Homo sapiens, UniProt P37231); experiment: GAL4 chimeric receptor transactivation assay in HeLa cells, PPARγ; format: cell-based
T2 construct: expressed in transfected cells; host or cells: HeLa (clonal reporter line HLR, stably transfected with pFA-PPARγ)
T2 sequence (P37231 238-503 limits assumed): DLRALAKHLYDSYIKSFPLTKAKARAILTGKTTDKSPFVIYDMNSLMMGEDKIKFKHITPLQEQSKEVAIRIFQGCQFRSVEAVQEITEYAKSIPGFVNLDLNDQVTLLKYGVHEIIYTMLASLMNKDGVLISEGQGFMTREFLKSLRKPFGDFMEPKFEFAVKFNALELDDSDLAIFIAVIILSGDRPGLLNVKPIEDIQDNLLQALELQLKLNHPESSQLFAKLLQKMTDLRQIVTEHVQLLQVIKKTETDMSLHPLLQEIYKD
Protocol: as §1

CCCCCCCC/C=C\CCCCCCCC(=O)NCCO [OEA, Z-2-hydroxyethyl octadec-9-enamide]
Liver OEA content ([1]; PPAR-α-null mice): 251.2 ± 28.2 pmol/g
Liver OEA content ([1]; wild-type mice): 150.5 ± 19.7 pmol/g
food intake after vagotomy or capsaicin treatment [2]: no effect
feeding response in capsaicin-treated rats [3]: failed to respond
effect on RXR [4]: no effect
conditioned taste aversion [5]: little effect
Stimulatory effect of 10 μM OEA on lypolysis (glycerol release) (Adipocyte): 38 ± 16 (n = 3) %
displacement of cannabinoid binding [6]: did not displace
meal pattern analysis (eating latency, meal size, post-meal interval) ([7]; C57BL/6J mice): essentially identical
feeding in wild-type mice ([7]; OEA 10 mg-kg^−1 i.p.): reduces feeding
feeding in PPARα-deficient mice ([7]; OEA 10, Wy-14643 40, d-fenfluramine 4 mg-kg^−1, CCK-8 25 μg-kg^−1, i.p.): absent and not
food intake 60 min ([8]; OEA 0.4 μg per animal i.c.v.): 4.8 ± 0.4
food intake 120 min ([8]; OEA 0.4 μg per animal i.c.v.): 6.6 ± 0.4
food intake 240 min ([8]; OEA 0.4 μg per animal i.c.v.): 8.4 ± 0.4
food intake 60 min ([8]; OEA 2 μg per animal i.c.v.): 4.9 ± 0.4
food intake 120 min ([8]; OEA 2 μg per animal i.c.v.): 6.6 ± 0.6
food intake 240 min ([8]; OEA 2 μg per animal i.c.v.): 8.7 ± 0.5
food intake 60 min ([8]; OEA 10 μg per animal i.c.v.): 5.9 ± 0.2
food intake 120 min ([8]; OEA 10 μg per animal i.c.v.): 8.1 ± 0.4
food intake 240 min ([8]; OEA 10 μg per animal i.c.v.): 9.6 ± 0.7
effect on food intake after direct injection into the brain ventricles ([8]; i.c.v.): ineffective
effect on PPARγ (human PPARγ): no effect
